Assay results published in publication PMC9663428, “The protein conformational basis of isoflavone biosynthesis” (Communications Biology, 2022).

Molecular target: T1, 2-HID (Pueraria montana, UniProt E9M5G1)
T1 construct: His-tagged (Ni-NTA) from pDEST17, expressed in E. coli BL21(DE3); first eight residues not observed; one molecule per asymmetric unit
T1 sequence (E9M5G1 1-325): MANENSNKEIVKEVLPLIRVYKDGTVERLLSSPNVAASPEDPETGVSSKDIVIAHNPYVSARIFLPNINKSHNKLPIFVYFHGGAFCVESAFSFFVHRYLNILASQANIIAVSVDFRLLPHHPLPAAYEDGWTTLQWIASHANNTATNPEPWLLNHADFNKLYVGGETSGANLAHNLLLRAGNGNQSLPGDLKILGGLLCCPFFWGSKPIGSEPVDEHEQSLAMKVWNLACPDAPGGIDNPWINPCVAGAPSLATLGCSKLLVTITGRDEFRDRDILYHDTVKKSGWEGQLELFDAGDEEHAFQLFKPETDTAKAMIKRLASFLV
Test: X-ray crystal structure, co-crystallization, […] Å
Type: binding
Conditions: carboxylesterase product; active site, hydrogen bond to Thr168; complex is 8EA1 or 8EA2, paper does not say which

In the case of O=[N+]([O-])c1ccc(O)cc1 [p-nitrophenol], the “X-ray crystal structure, co-crystallization, 2.3 Å” value is reported as “only a structure of 2-HID complexed with p-nitrophenol, a product of the carboxylesterase reaction”.
